From patent US6825193B2, “Citric acid salt of a therapeutic compound and pharmaceutical compositions thereof” (Pfizer Inc., priority 2001, dated 2004)
“Also recorded” adds a separate entry of the source. Structures can show the parent of a compound that is named as a salt.

What was measured:
Assay type in all cases: physicochemical
[1] = Aqueous solubility and native pH in aqueous solution
[2] = Hygroscopicity on exposure to 90% relative humidity in a moisture chamber
[3] = Solid state stability (light, elevated temperature, high humidity challenges); conditions: elevated temperatures
[4] = Compatibility with drug product formulation excipients

## CN1CCN(c2ccccc2/C=C2\SCCN(c3ccc(Cl)c(Cl)c3)C2=O)CC1 [citrate salt, 4-(3,4-dichlorophenyl)-2-[2-(4-methylpiperazin-1-yl)-benzylidene]-thiomorpholin-3-one]
[1]
  aqueous solubility (in words): high aqueous solubility
[1]; aqueous solution at solubility 1.3 mg/ml
  native pH in aqueous solution: 3.37
[1]; water, native pH 3.37
  solubility: 1300 µg/mL
[2]
  hygroscopicity (in words): only slightly hygroscopic
[2]; at 90% relative humidity
  hygroscopicity: approximately 1.27%
[2]; on exposure to 90% relative humidity in a moisture chamber
  hygroscopicity: approximately 1.27 % wt/wt
[3]
  solid state stability (in words): excellent solid state stability; also recorded: superior to previously known salts
[4]
  inertness / compatibility towards common formulation excipients (in words): relative inertness towards common excipients; also recorded: superior to previously known salts
